From ChEMBL document CHEMBL5614392, “Discovery of novel N2-indazole derivatives as phosphodiesterase 4 inhibitors for the treatment of inflammatory bowel disease” (Eur J Med Chem, 2024)
Activity calls are given as the source filed them. The rule behind the calls is not given here.

How the values were obtained:
[1] = biological target: Phosphodiesterase 7 (Homo sapiens, UniProt Q13946+Q9NP56); assay: Inhibition of PDE7 (unknown origin); format: protein assay
[2] = biological target: Phosphodiesterase 4 (Homo sapiens, UniProt P27815+Q08499+Q07343+Q08493); assay: Inhibition of PDE4 (unknown origin); format: protein assay
[3] = biological target: T1, 3',5'-cyclic-AMP phosphodiesterase 4D (Homo sapiens, UniProt Q08499); assay: Inhibition of PDE4D7 (unknown origin) using FAM-cyclic-3'5'-AMP as substrate at 100 nM incubated for 1 hrs by fluorescence polarization assay relative to control
[4] = biological target: T1, 3',5'-cyclic-AMP phosphodiesterase 4D; assay: Inhibition of PDE4D7 (unknown origin) using FAM-cyclic-3'5'-AMP as substrate at 10 nM incubated for 1 hrs by fluorescence polarization assay relative to control
[5] = biological target: T1, 3',5'-cyclic-AMP phosphodiesterase 4D; assay: Inhibition of PDE4D7 (unknown origin) using FAM-cyclic-3'5'-AMP as substrate incubated for 1 hrs by fluorescence polarization assay
[6] = biological target: T1, 3',5'-cyclic-AMP phosphodiesterase 4D; assay: Inhibition of PDE4D7 (unknown origin) using FAM-cyclic-3'5'-AMP as substrate at 1 uM incubated for 1 hrs by fluorescence polarization assay relative to control
[7] = system: HT-22; assay: Cytotoxicity against mouse HT-22 cells at 10 to 30 uM; format: toxicity, cell-based; conditions: ht-22, 30 µM, dose 10-30 µM
[8] = system: RAW264.7; assay: Antiinflammatory activity against mouse RAW264.7 cells assessed as inhibition of LPS-induced IL-6 mRNA production at 10 uM incubated for 24 hrs by SYBR green quantitative PCR analysis; format: functional, cell-based
[9] = system: Mus musculus; assay: Antiinflammatory activity against DSS-induced colitis C57BL/6J mouse model assessed as decrease in body weight loss at 3 mg/kg, po pretreated with DSS for 10 days followed by twice daily compound administration for 8 days starting from day 3 to day 10 relative to control; format: functional; set-up: scale not given: the % may be the effect or the level left; conditions: time 8 day
[10] = system: Mus musculus; assay: Antiinflammatory activity against DSS-induced colitis C57BL/6J mouse model assessed as decrease in body weight loss at 3 mg/kg, po pretreated with DSS for 10 days followed by twice daily compound administration for 8 days starting from day 3 to day 10 and measured on day 6; format: functional, organism-based; conditions: time 4.0 day
[11] = system: Mus musculus; assay: Antiinflammatory activity against DSS-induced colitis C57BL/6J mouse model assessed as decrease in disease activity index at 3 mg/kg, po pretreated with DSS for 10 days followed by twice daily compound administration for 8 days starting from day 3 to day 10 relative to control; format: functional, organism-based; conditions: time 8.0 day
[12] = system: RAW264.7; assay: Antiinflammatory activity against mouse RAW264.7 cells assessed as inhibition of LPS-induced TNF-alpha mRNA production at 10 uM incubated for 24 hrs by SYBR green quantitative PCR analysis; format: functional, cell-based
[13] = system: RAW264.7; assay: Antiinflammatory activity against mouse RAW264.7 cells assessed as inhibition of LPS-induced iNOS mRNA production at 10 uM incubated for 24 hrs by SYBR green quantitative PCR analysis; format: functional, cell-based
[14] = system: Mus musculus; assay: Antiinflammatory activity against DSS-induced colitis C57BL/6J mouse model assessed as increase in colon length at 3 mg/kg, po pretreated with DSS for 10 days followed by twice daily compound administration for 8 days starting from day 3 to day 10; format: functional, organism-based; conditions: time 8.0 day
[15] = Toxicity in ketamine/xylazine-induced anesthetic male C57BL/6J mouse model assessed as emetogenic potential by measuring reduction in anesthesia duration at 0.5 mg/kg, po preadministered with compound for 15 mins followed by ketamine/xylazine administration; format: organism-based; conditions: in vivo, 0.25 h
[16] = biological target: 3',5'-cyclic-AMP phosphodiesterase 4B (Homo sapiens, UniProt Q07343); assay: Inhibition of recombinant human PDE4B catalytic domain extracted from baculovirus infected Sf9 cells using […] preincubated for 20 mins followed by 2 mins incubation at 65 degreeC and measured 10 mins after substrate addition by scintillation counter
[17] = biological target: T1, 3',5'-cyclic-AMP phosphodiesterase 4D; assay: Inhibition of human recombinant PDE4D using radioactively labelled cAMP and cAMP as substrate incubated for 1 hrs by luminescence based analysis
[18] = Selectivity ratio of IC50 for PDE7A (unknown origin) to IC50 for PDE4D7 (unknown origin)
[19] = Oral bioavailability in male C57BL/6J mouse; format: ADME, organism-based; conditions: in vivo
[20] = Selectivity ratio of IC50 for PDE3B (unknown origin) to IC50 for PDE4D7 (unknown origin)
[21] = Acute toxicity in po dosed male C57BL/6J mouse assessed as lethal dose measured after 14 days; format: organism-based; conditions: in vivo, time 14 day
[22] = Toxicity in ketamine/xylazine-induced anesthetic male C57BL/6J mouse model assessed as emetogenic potential by measuring reduction in anesthesia duration at 5 to 10 mg/kg, po preadministered with compound for 15 mins followed by ketamine/xylazine administration; format: organism-based; conditions: in vivo, 0.25 h, dose 5-10 mg/kg
[23] = Selectivity ratio of IC50 for PDE9A (unknown origin) to IC50 for PDE4D7 (unknown origin)
[24] = biological target: High affinity cGMP-specific 3',5'-cyclic phosphodiesterase 9A (Homo sapiens) (UniProt O76083); assay: Inhibition of PDE9A (unknown origin) using FAM-cyclic-3'5'-AMP as substrate at 10 uM incubated for 1 hrs by fluorescence polarization assay relative to control
[25] = biological target: cGMP-inhibited 3',5'-cyclic phosphodiesterase 3B (Homo sapiens) (UniProt Q13370); assay: Inhibition of PDE3B (unknown origin) using FAM-cyclic-3'5'-AMP as substrate at 10 uM incubated for 1 hrs by fluorescence polarization assay relative to control
[26] = biological target: High affinity 3',5'-cyclic-AMP phosphodiesterase 7A (Homo sapiens) (UniProt Q13946); assay: Inhibition of PDE7A (unknown origin) using FAM-cyclic-3'5'-AMP as substrate at 10 uM incubated for 1 hrs by fluorescence polarization assay relative to control
[27] = biological target: High affinity cAMP-specific and IBMX-insensitive 3',5'-cyclic phosphodiesterase 8A (Homo sapiens) (UniProt O60658); assay: Inhibition of PDE8A (unknown origin) using FAM-cyclic-3'5'-AMP as substrate at 10 uM incubated for 1 hrs by fluorescence polarization assay relative to control
[28] = Selectivity ratio of IC50 for PDE8A (unknown origin) to IC50 for PDE4D7 (unknown origin)
[29] = Acute toxicity in male C57BL/6J mouse assessed as animal death at 0.1 g/Kg, po measured within 10 to 24 hrs; format: organism-based; conditions: in vivo, 100 mg/kg, time 10-24 hrs
[30] = biological target: T1, 3',5'-cyclic-AMP phosphodiesterase 4D; assay: Potency index, ratio of TPA16 IC50 to test compound IC50 for inhibition of PDE4D7 (unknown origin) using FAM-cyclic-3'5'-AMP as substrate incubated for 1 hrs by fluorescence polarization assay

T1 sequence (Q08499 whole entry): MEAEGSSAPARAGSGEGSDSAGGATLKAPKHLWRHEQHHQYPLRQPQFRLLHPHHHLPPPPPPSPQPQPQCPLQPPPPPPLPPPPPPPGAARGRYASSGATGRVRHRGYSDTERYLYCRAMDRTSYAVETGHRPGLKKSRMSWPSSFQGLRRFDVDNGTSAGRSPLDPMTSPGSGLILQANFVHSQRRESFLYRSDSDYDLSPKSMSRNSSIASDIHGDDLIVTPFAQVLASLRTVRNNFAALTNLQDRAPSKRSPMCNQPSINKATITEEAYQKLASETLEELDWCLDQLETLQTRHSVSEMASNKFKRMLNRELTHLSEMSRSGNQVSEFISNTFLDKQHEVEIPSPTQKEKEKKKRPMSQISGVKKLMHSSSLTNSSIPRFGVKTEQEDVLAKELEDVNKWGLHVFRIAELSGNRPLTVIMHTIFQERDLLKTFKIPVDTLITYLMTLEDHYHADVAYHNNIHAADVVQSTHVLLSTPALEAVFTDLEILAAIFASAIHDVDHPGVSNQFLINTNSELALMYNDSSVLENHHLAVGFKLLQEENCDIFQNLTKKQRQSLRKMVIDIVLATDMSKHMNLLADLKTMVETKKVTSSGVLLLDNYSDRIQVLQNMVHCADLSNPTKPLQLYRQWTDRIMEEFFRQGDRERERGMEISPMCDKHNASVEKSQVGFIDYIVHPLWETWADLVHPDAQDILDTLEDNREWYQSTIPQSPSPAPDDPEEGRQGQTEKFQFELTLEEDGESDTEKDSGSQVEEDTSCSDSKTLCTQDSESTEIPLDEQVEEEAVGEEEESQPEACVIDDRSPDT
Sequence of High affinity 3',5'-cyclic-AMP phosphodiesterase 7A (Homo sapiens) (Q13946 whole entry): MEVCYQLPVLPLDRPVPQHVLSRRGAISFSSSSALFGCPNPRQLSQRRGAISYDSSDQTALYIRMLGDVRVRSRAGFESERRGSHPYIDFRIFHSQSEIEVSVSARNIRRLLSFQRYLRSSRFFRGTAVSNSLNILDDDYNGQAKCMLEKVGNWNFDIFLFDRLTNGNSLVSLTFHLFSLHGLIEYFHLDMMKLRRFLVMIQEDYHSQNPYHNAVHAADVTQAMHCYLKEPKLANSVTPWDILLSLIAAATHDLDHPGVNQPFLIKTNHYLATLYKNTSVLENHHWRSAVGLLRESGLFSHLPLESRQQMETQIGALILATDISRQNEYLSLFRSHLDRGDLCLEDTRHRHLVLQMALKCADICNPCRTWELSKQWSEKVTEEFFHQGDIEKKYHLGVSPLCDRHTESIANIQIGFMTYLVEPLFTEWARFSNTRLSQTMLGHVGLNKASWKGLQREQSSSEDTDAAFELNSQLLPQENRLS
Sequence of cGMP-inhibited 3',5'-cyclic phosphodiesterase 3B (Homo sapiens) (Q13370 whole entry, looked up): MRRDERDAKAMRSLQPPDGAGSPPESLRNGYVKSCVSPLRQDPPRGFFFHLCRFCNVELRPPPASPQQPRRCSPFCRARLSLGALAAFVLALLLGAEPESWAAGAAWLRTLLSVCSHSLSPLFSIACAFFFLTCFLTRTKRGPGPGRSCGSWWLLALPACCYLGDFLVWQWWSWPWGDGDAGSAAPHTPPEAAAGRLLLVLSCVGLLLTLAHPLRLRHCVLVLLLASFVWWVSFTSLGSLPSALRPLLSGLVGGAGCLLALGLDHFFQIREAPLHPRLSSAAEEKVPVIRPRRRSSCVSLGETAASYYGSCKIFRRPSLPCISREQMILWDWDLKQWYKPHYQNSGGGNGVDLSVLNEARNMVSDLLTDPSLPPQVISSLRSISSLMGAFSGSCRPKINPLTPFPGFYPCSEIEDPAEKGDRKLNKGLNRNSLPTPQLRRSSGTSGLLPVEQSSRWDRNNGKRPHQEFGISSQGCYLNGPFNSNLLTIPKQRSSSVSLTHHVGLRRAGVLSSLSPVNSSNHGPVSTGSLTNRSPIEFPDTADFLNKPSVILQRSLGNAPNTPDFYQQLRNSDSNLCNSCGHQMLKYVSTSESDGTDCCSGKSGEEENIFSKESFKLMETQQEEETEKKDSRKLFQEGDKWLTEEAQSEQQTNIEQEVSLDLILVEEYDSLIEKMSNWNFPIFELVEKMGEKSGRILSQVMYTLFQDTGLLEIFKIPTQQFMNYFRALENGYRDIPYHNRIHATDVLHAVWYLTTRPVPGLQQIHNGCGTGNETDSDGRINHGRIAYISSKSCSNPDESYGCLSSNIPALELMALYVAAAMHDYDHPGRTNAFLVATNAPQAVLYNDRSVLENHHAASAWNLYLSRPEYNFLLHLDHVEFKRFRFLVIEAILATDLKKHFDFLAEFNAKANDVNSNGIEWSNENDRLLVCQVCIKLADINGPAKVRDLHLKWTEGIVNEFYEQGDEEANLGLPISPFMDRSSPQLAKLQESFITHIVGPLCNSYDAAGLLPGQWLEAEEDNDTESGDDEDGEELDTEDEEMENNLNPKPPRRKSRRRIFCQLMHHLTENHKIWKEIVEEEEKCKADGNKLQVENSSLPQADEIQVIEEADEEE
Sequence of High affinity cAMP-specific and IBMX-insensitive 3',5'-cyclic phosphodiesterase 8A (Homo sapiens) (O60658 whole entry): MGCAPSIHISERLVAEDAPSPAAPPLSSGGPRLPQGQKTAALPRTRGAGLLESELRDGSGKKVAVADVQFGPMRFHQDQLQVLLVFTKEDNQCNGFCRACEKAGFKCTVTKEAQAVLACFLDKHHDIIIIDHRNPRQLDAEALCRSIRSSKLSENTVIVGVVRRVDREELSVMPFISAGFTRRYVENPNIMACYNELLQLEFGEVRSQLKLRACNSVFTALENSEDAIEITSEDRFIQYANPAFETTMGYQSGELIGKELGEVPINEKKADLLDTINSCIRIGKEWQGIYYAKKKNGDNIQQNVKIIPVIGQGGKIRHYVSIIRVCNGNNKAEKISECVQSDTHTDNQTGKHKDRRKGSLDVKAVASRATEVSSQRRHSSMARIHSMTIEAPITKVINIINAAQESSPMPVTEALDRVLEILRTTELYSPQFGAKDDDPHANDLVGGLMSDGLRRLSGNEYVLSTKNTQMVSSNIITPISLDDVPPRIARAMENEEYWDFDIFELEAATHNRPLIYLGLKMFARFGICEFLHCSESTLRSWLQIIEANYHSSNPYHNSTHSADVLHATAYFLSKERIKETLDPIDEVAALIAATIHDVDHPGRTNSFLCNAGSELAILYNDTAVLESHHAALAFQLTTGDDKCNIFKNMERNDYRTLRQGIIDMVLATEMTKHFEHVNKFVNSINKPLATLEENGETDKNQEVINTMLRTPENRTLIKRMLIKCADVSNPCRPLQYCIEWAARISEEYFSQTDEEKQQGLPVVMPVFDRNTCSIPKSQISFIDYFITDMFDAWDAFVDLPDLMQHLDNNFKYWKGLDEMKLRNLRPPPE
Sequence of High affinity cGMP-specific 3',5'-cyclic phosphodiesterase 9A (Homo sapiens) (O76083 whole entry): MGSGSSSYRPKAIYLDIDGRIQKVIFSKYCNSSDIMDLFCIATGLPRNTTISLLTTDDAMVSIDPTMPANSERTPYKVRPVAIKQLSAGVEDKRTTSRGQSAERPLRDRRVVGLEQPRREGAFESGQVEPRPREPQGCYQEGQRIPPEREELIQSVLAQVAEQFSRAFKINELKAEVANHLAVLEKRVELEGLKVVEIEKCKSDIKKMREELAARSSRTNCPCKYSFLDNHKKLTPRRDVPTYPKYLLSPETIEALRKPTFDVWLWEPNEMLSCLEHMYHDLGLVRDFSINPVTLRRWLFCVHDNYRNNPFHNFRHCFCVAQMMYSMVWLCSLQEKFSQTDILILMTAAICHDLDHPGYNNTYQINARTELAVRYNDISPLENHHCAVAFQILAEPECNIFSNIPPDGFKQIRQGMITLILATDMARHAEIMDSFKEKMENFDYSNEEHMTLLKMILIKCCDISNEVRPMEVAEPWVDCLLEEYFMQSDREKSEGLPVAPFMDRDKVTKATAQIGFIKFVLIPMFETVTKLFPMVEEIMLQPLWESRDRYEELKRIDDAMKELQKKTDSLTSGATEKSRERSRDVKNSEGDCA
Sequence of 3',5'-cyclic-AMP phosphodiesterase 4B (Q07343 whole entry, the tested form may be a part): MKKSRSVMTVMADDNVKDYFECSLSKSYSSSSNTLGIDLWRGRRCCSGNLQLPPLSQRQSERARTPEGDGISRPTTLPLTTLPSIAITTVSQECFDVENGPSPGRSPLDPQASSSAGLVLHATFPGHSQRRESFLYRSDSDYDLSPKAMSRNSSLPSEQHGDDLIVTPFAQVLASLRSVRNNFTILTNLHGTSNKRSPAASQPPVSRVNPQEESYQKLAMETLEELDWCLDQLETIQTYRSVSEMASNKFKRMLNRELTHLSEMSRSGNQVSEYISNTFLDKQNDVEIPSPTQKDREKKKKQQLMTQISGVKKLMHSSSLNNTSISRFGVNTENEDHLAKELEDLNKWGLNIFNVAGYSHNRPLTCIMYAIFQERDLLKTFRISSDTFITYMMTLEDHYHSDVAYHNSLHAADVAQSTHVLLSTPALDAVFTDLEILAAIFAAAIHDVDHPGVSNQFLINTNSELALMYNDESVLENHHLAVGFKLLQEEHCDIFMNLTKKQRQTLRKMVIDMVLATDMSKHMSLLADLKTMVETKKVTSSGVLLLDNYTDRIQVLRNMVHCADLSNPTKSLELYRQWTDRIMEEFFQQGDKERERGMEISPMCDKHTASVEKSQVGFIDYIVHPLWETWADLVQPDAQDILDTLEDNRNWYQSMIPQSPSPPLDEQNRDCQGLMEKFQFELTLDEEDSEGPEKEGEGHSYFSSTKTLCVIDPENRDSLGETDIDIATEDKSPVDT

Row | inhibition [3] | inhibition [4] | IC50 [5] | Compound | other results
1 | 68% | 37% | 22.9 nM | COc1ccc(-c2cccc(C(C)=O)c2)c2cn(C3CC3)nc12 | –
2 | 21% | 7% | – | COc1cc(-c2ccc(OC(F)F)c3nn(C4CC4)cc23)ccn1 | –
3 | 4% | – | – | COc1cc(OC)cc(-c2ccc(OC(F)F)c3nn(C4CC4)cc23)c1 | –
4 | 15% | 3% | – | Fc1cnccc1-c1ccc(OC(F)F)c2nn(C3CC3)cc12 | –
5 | 9% | 7% | – | COc1ccc(N2CC(Oc3ccccc3)C2)c2cn(C3CC3)nc12 | –
6 | 16% | 8% | – | O=C(NCc1ccccc1)c1cc(-c2ccc(OC(F)F)c3nn(C4CC4)cc23)ccn1 | –
7 | 14% | 6% | – | FC(F)Oc1ccc(-c2ccncc2Cl)c2cn(C3CC3)nc12 | –
8 | 88% | 38% | 13.4 nM | CC(=O)c1cccc(-c2ccc(OC(F)F)c3nn(C4CC4)cc23)c1 | Activity [7]: Toxic
9 | 68% | 26% | 38.2 nM | COc1ccc(-c2cccc(C(N)=O)c2)c2cn(C3CC3)nc12 | –
10 | 4% | 3% | – | COc1ccc(-c2ccc(OC)c3nn(C4CC4)cc23)cc1OC | inhibition [5]: inactive
11 | 4% | 4% | – | CC(C)(O)C1CN(c2ccc(OC(F)F)c3nn(C4CC4)cc23)C1 | –
12 | 3% | 3% | – | COc1ccc(-c2cc(C#N)cc(Cc3ccccc3)c2)c2cn(C3CC3)nc12 | –
13 | 71% | 32% | 33.1 nM | COc1ccc(-c2cccc(CN)c2)c2cn(C3CC3)nc12 | –
14 | 16% | 18% | – | COc1ccc(-n2ccc3cc(C#N)ccc32)c2cn(C3CC3)nc12 | –
15 | 6% | 5% | – | COc1ccc(-c2cccc(C#N)c2)c2cn(C3CC3)nc12 | –
16 | 12% | 4% | – | FC(F)Oc1ccc(N2CCOCC2)c2cn(C3CC3)nc12 | –
17 | 73% | 34% | 27.6 nM | COc1cc(-c2ccc(OC)c3nn(C4CC4)cc23)cc(OC)c1OC | Ratio IC50 [30]: > 20

Continued, molecule first:

Row | Compound | inhibition [3] | inhibition [4] | IC50 [5] | other results
18 | OCCN(CCO)c1nc(N2CCCCC2)c2nc(N(CCO)CCO)nc(N3CCCCC3)c2n1 [DIPYRIDAMOLE] | – | – | – | IC50 [1]: 600 nM; IC50 [2]: 2800 nM
19 | NC(=O)c1cccnc1Oc1cc(-c2ccc(OC(F)F)c3nn(C4CC4)cc23)cc2c1OCO2 | 22% | – | – | –
20 | FC(F)Oc1ccc(-c2ccnc(N3CCOCC3)c2)c2cn(C3CC3)nc12 | 11% | 3% | – | –
21 | CNc1cc(-c2ccc(OC(F)F)c3nn(C4CC4)cc23)ccn1 | 18% | 4% | – | –
22 | COc1ccc(-c2cccc(C(C)=O)c2)c2cn(C3(C(=O)NCC(C)C)CC3)nc12 | 4% | – | > 1000 nM | inhibition [6]: 7%
23 | FC(F)Oc1ccc(-c2ccnc(Cl)c2)c2cn(C3CC3)nc12 | 79% | 28% | 22.5 nM | –
24 | N#Cc1cccnc1Oc1cc(-c2ccc(OC(F)F)c3nn(C4CC4)cc23)cc2c1OCO2 | 2% | – | – | –
25 | COc1cc(-c2ccc(OC(F)F)c3nn(C4CC4)cc23)cc2c1OCO2 | 24% | – | – | –
26 | O=C(Nc1c(Cl)cncc1Cl)c1ccc(OC(F)F)c(OCC2CC2)c1 [ROFLUMILAST] | – | – | – | Activity [8]: Active; Activity [9]: 7.3%; Activity [10]: Active; Activity [11]: Active; Activity [12]: Active; Activity [13]: Active; Activity [14]: Active; Activity [15]: Toxic
27 | COc1ccc(-c2cccc(C(C)=O)c2)c2cn(C3(C(=O)NC4CCCC4)CC3)nc12 | 8% | – | > 1000 nM | inhibition [6]: 4%
28 | COc1ccc(-c2ccc3[nH]c(=O)ccc3c2)n2cc(C(F)(F)F)nc12 | – | – | – | IC50 [16]: < 100 nM
29 | COc1ccc(-c2cccc(C(C)=O)c2)n2nc(C3(C(=O)NC4CCCC4)CC3)nc12 | – | – | – | IC50 [17]: < 500 nM
30 | Fc1cc(-c2ccc(OC(F)F)c3nn(C4CC4)cc23)ccn1 | 38% | 12% | – | –
31 | COc1ccc(-c2ccncc2)c2cn(C3CC3)nc12 | 89% | 46% | 10.1 nM | Ratio IC50 [18]: > 990; bioavailability [19]: 3.4%; Ratio IC50 [20]: > 990; Activity [7]: Non-Toxic; LD50 at 336 h [21]: 400 mg/kg; Activity [22]: Non-Toxic; Ratio IC50 [23]: > 990; inhibition [24]: 7%; inhibition [25]: 11%; inhibition [26]: 13%; inhibition [27]: 10%; Ratio IC50 [28]: > 990
32 | CCOc1cc([C@@H](CS(C)(=O)=O)N2C(=O)c3cccc(NC(C)=O)c3C2=O)ccc1OC | – | – | – | Activity [15]: Toxic
33 | COc1ccc(C2CNC(=O)C2)cc1OC1CCCC1 (stereo unspecified) [ROLIPRAM] | – | – | – | Activity [15]: Toxic
34 | COc1ccc(-c2cccc(C#N)c2)c2cn(C3(C(=O)NCC(C)C)CC3)nc12 | 18% | – | 380 nM | inhibition [6]: 81%
35 | CC(C)CNC(=O)c1cc(-c2ccc(OC(F)F)c3nn(C4CC4)cc23)ccn1 | 14% | 5% | – | –
36 | FC(F)Oc1ccc(-c2ccncc2)c2cn(C3CC3)nc12 | 77% | 34% | 19.9 nM | Ratio IC50 [18]: > 502; Ratio IC50 [20]: > 502; Activity [7]: Non-Toxic; Ratio IC50 [23]: > 502; inhibition [24]: 4%; inhibition [25]: 8%; Activity [29]: Toxic; inhibition [26]: 13%; inhibition [27]: 5%; Ratio IC50 [28]: > 502
